# Assay results published in ChEMBL document CHEMBL3868582, “Discovery, pharmacology, and clinical profile of omadacycline, a novel aminomethylcycline antibiotic” (Bioorg Med Chem, 2016).
# Tests used:
# Staphylococcus aureus [1] = assay: Antibacterial activity against Staphylococcus aureus USA400 in mouse thigh wound infection model assessed as reduction in bacterial load administered intravenously as single dose after 2 hrs of infection measured after 24 hrs post treatment; type: functional; conditions: USA400, iv
# [2] = Induction of CYP2D6 mRNA level in human primary hepatocytes at 1 to 100 uM after 24 to 48 hrs relative to control; type: ADME, cell-based, Hepatocyte
# Staphylococcus aureus [3] = assay: Antibacterial activity against Staphylococcus aureus USA300 in mouse thigh wound infection model assessed as reduction in bacterial load administered intravenously as single dose after 2 hrs of infection measured after 24 hrs post treatment; type: functional; conditions: USA300, iv
# Bacteroides fragilis = assay: Antibacterial activity against Bacteroides fragilis; type: functional
# [4] = Metabolic stability in human hepatocytes at 48 uM up to 24 hrs; type: ADME, cell-based, Hepatocyte; conditions: read-out: Stability
# Escherichia coli [5] = assay: Antibacterial activity against Escherichia coli by microdilution broth assay; type: functional
# Haemophilus influenzae [6] = assay: Antibacterial activity against Haemophilus influenzae by microdilution broth assay; type: functional
# Klebsiella aerogenes = assay: Antibacterial activity against Enterobacter aerogenes; type: functional
# Staphylococcus aureus [7] = assay: Antibacterial activity against Staphylococcus aureus USA300; type: functional
# [8] = Induction of CYP2C8 mRNA level in human primary hepatocytes at 1 to 100 uM after 24 to 48 hrs relative to control; type: ADME, cell-based, Hepatocyte
# Enterobacter cloacae = assay: Antibacterial activity against Enterobacter cloacae; type: functional
# [9] = Induction of CYP2A6 mRNA level in human primary hepatocytes at 1 to 100 uM after 24 to 48 hrs relative to control; type: ADME, cell-based, Hepatocyte
# [10] = Induction of CYP3A4/5 mRNA level in human primary hepatocytes at 1 to 100 uM after 24 to 48 hrs relative to control; type: ADME, cell-based, Hepatocyte
# Streptococcus pneumoniae [11] = assay: Antibacterial activity against Streptococcus pneumoniae PBS1399 infected in mouse assessed as protection against bacterial infection by measuring mouse survival administered intravenously as single dose after 2 hrs of infection measured on day 7; type: functional; conditions: PBS1399, iv, read-out: PD50
# Haemophilus influenzae [12] = assay: […] activity against Haemophilus influenzae assessed as reduction in bacterial load at MIC by time-kill analysis; type: functional
# Providencia sp. = assay: Antibacterial activity against Providencia sp.; type: functional
# Staphylococcus aureus [13] = assay: Antibacterial activity against Staphylococcus aureus USA400; type: functional
# [14] = Induction of CYP2C9 mRNA level in human primary hepatocytes at 1 to 100 uM after 24 to 48 hrs relative to control; type: ADME, cell-based, Hepatocyte
# Haemophilus influenzae [15] = assay: Antibacterial activity against Haemophilus influenzae PBS981 infected in CD-1 mouse assessed as reduction in bacterial load in lungs administered intravenously as single dose after 2 hrs of infection measured after 24 hrs post treatment; type: functional; conditions: PBS981, iv
# [16] = Induction of CYP1A2 mRNA level in human primary hepatocytes at 1 to 100 uM after 24 to 48 hrs relative to control; type: ADME, cell-based, Hepatocyte
# [17] = Induction of CYP2B6 mRNA level in human primary hepatocytes at 1 to 100 uM after 24 to 48 hrs relative to control; type: ADME, cell-based, Hepatocyte
# Haemophilus influenzae [18] = assay: Antibacterial activity against Haemophilus influenzae PBS981; type: functional
# [19] = Induction of CYP2C19 mRNA level in human primary hepatocytes at 1 to 100 uM after 24 to 48 hrs relative to control; type: ADME, cell-based, Hepatocyte
# Shigella sp. = assay: Antibacterial activity against Shigella sp.; type: functional
# Clostridioides difficile [20] = assay: Antibacterial activity against Clostridium difficile infected in hamster model assessed as median survival time; type: functional
# Escherichia coli [21] = assay: Antibacterial activity against Escherichia coli; type: functional
# Moraxella catarrhalis = assay: Antibacterial activity against Moraxella catarrhalis; type: functional
# [22] = Metabolic stability in human microsomes at 4.8 uM after 30 mins; type: ADME, Microsome; conditions: read-out: Stability
# [23] = Induction of CYP2J2 mRNA level in human primary hepatocytes at 1 to 100 uM after 24 to 48 hrs relative to control; type: ADME, cell-based, Hepatocyte
# Proteus sp. = assay: Antibacterial activity against Proteus sp.; type: functional; conditions: Proteus sp. (in: enterobacteria)
# Klebsiella pneumoniae = assay: Antibacterial activity against Klebsiella pneumoniae by microdilution broth assay; type: functional
# Pseudomonas aeruginosa = assay: Antibacterial activity against Pseudomonas aeruginosa; type: functional
# Salmonella sp. = assay: Antibacterial activity against Salmonella sp.; type: functional
# Serratia marcescens = assay: Antibacterial activity against Serratia marcescens; type: functional
# Clostridioides difficile [24] = assay: Antibacterial activity against Clostridium difficile by broth microdilution assay; type: functional
# Clostridium perfringens = assay: Antibacterial activity against Clostridium perfringens; type: functional
# [25] = target: Voltage-gated inwardly rectifying potassium channel KCNH2 (Homo sapiens, UniProt Q12809); assay: Inhibition of human ERG
# Clostridioides difficile [26] = assay: Antibacterial activity against Clostridium difficile by agar microdilution assay; type: functional
# Streptococcus pneumoniae [27] = assay: Antibacterial activity against Streptococcus pneumoniae PBS1399; type: functional
# [28] = Induction of CYP1B1 mRNA level in human primary hepatocytes at 1 to 100 uM after 24 to 48 hrs relative to control; type: ADME, cell-based, Hepatocyte
# Haemophilus influenzae [29] = assay: Antibacterial activity against Haemophilus influenzae; type: functional
# [30] = Induction of CYP2E1 mRNA level in human primary hepatocytes at 1 to 100 uM after 24 to 48 hrs relative to control; type: ADME, cell-based, Hepatocyte
# [31] = Induction of CYP1A1 mRNA level in human primary hepatocytes at 1 to 100 uM after 24 to 48 hrs relative to control; type: ADME, cell-based, Hepatocyte
# [32] = test system: Stenotrophomonas maltophilia; assay: Antibacterial activity against Stenotrophomonas maltophilia; type: functional
# Voltage-gated inwardly rectifying potassium channel KCNH2, sequence (Q12809 whole entry): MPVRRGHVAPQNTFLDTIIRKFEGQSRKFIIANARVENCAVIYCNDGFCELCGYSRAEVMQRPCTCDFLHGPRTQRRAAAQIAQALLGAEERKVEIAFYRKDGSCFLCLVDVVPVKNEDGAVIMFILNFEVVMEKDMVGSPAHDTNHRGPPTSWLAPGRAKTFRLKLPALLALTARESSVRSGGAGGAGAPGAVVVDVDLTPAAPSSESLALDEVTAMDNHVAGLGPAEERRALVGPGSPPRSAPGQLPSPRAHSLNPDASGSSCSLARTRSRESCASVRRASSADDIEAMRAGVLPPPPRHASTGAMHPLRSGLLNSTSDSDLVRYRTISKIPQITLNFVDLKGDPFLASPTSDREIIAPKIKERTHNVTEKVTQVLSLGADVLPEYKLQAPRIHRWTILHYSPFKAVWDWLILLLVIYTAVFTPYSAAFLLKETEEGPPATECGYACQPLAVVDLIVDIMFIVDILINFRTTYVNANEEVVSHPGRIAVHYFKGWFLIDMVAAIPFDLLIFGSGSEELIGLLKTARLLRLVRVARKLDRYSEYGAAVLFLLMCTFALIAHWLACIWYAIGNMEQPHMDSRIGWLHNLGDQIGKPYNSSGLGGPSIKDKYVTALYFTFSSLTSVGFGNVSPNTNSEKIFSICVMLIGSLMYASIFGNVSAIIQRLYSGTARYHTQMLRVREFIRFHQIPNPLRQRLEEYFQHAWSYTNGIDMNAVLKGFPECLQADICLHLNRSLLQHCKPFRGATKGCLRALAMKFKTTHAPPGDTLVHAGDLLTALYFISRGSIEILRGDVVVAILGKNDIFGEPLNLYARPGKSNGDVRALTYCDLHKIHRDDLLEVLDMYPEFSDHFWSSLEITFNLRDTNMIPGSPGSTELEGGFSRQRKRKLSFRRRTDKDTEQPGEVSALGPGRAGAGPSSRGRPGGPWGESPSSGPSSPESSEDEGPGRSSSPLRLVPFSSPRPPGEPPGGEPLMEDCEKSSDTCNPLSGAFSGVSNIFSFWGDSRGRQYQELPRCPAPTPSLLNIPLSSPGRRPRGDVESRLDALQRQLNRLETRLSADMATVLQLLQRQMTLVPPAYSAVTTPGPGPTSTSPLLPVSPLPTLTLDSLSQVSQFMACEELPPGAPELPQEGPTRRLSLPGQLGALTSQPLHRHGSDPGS
smiles,measurement,setting,value
CN(C)c1cc(CNCC(C)(C)C)c(O)c2c1C[C@H]1C[C@H]3[C@H](N(C)C)C(O)=C(C(N)=O)C(=O)[C@@]3(O)C(O)=C1C2=O [OMADACYCLINE],ED50,Staphylococcus aureus [1],0.68 mg/kg
same,Activity,[2],< 40%
same,ED50,Staphylococcus aureus [3],0.4 mg/kg
same,MIC90,Bacteroides fragilis,0.12 to 4 µg/mL
same,"remaining at 24 h, 48 µM",[4],> 86%
same,MIC90,Escherichia coli [5],2 to 4 µg/mL
same,MIC90,Haemophilus influenzae [6],2 to 4 µg/mL
same,MIC90,Klebsiella aerogenes,< 4 µg/mL
same,MIC,Staphylococcus aureus [7],0.25 µg/mL
same,Activity,[8],< 40%
same,MIC90,Enterobacter cloacae,< 4 µg/mL
same,Activity,[9],< 40%
same,Activity,[10],< 40%
same,ED50,Streptococcus pneumoniae [11],1.5 mg/kg
same,Activity,Haemophilus influenzae [12],>=3 log10CFU
same,MIC90,Providencia sp.,> 16 µg/mL
same,MIC,Staphylococcus aureus [13],0.5 µg/mL
same,Activity,[14],< 40%
same,ED50,Haemophilus influenzae [15],6.47 mg/kg
same,Activity,[16],< 40%
same,Activity,[17],< 40%
same,MIC,Haemophilus influenzae [18],1 µg/mL
same,Activity,[19],< 40%
same,MIC90,Shigella sp.,< 4 µg/mL
same,MST,Clostridioides difficile [20],12 days
same,MIC90,Escherichia coli [21],< 4 µg/mL
same,MIC90,Moraxella catarrhalis,0.25 µg/mL
same,"remaining at 0.5 h, 4.8 µM",[22],> 90%
same,Activity,[23],< 40%
same,MIC90,Proteus sp.,> 16 µg/mL
same,MIC90,Klebsiella pneumoniae,2 to 4 µg/mL
same,MIC90,Pseudomonas aeruginosa,> 16 µg/mL
same,MIC90,Salmonella sp.,< 4 µg/mL
same,MIC90,Serratia marcescens,< 4 µg/mL
same,MIC90,Clostridioides difficile [24],0.06 µg/mL
same,MIC90,Clostridium perfringens,0.12 to 4 µg/mL
same,IC25,[25],166 µg/mL
same,MIC90,Clostridioides difficile [26],0.12 µg/mL
same,MIC,Streptococcus pneumoniae [27],0.125 µg/mL
same,Activity,[28],< 40%
same,MIC90,Haemophilus influenzae [29],2 µg/mL
same,Activity,[30],< 40%
same,Activity,[31],< 40%
same,MIC90,[32],< 4 µg/mL
